According to US9969755B2, “Photodynamic therapy photosensitizers” (The Royal Institution for the Advancement of …, priority 2016, dated 2018):
Where two headings read alike, the source gives them in different places. Each block holds one molecule with its values, some of them ahead of it.

Columns and labels:
[1] = Time-resolved fluorescence (fluorescence lifetime, TCSPC); assay type: physicochemical; conditions: acetonitrile, room temperature
Experimental: Fluorescence lifetime measurements were carried out using a Picoquant Fluotime 200 time correlated single photon counting (TCSPC) setup employing an LDH-P-C-470 picosecond diode laser (Picoquant) with an excitation wavelength at 466 nm as the excitation source. The laser was controlled by a PDL 800 B picosecond laser driver from Picoquant. ^1HNMR spectra were recorded on a Bruker AV 400 instrument at 400 MHz. ^13CNMR spectra were recorder on a Varian VNMRS 500 instrument at 125 MHz. ESI mass spectra were measured on a Bruker maXis impact. Laser Flash Photolysis (LFP) experiments were carried out in a commercially available Luzchem 212 LFP setup provided with a Tektronix TDS 2000 digitizer for signal capture. A Nd:Yag laser (Continuum model Surelite I-10 using a second harmonic generators, model number SL-SHG-T1) was used for excitation at a wavelength of 532 nm. Phosphorescence experiments were recorded using a Cary Eclipse Fluorescence Spectrophotometer. Singlet Oxygen phosphorescence was recorded with a Hamamatsu NIR detector (peltier cooled at −62.8° C. operating at 800 V, coupled to a grating monochromator) upon excitation with a 532 nm Nd:YAG laser. A customized Luzchem Research LFP-111 system was employed to collect and process the data. The steady-state fluorescence spectra were recorded between 500-800 nm (depending on each compound) upon exciting at the wavelength of the absorbance maxima. The excitation and emission slits were tuned according to the fluorescence quantum yield of each BODIPY (i.e. for compound 7 excitation slits were 5 nm and for compound 4 we used 2 nm). Fluorescence was recorded every 1 nm using 0.1 s integration time. For the Fluorescence lifetime measurements, the excitation rate was 10 MHz, and the detection frequency was less than 100 kHz. Photons were collected at the magic angle. The fluorescence decay traces were fit using FluoFit (Picoquant) software. For steady-state and time-resolved fluorescence measurements a quartz cuvette with a 10 mm path length was used and all the solutions were prepared in air equilibrated acetonitrile.

[2] = Absorption and steady-state fluorescence, fluorescence quantum yield in acetonitrile; assay type: physicochemical
Experimental: Absorption spectra were recorded using a Hitachi U-2800 UV-vis-NIR spectrophotometer. Luminescence spectra were recorded using a PTI QuantaMaster spectrofluorimeter using 10×10 mm quartz cuvettes and corrected for detector sensitivity.
The steady-state fluorescence spectra were recorded between 500-800 nm (depending on each compound) upon exciting at the wavelength of the absorbance maxima. The excitation and emission slits were tuned according to the fluorescence quantum yield of each BODIPY (i.e. for compound 7 excitation slits were 5 nm and for compound 4 we used 2 nm). Fluorescence was recorded every 1 nm using 0.1 s integration time. For the Fluorescence lifetime measurements, the excitation rate was 10 MHz, and the detection frequency was less than 100 kHz. Photons were collected at the magic angle. The fluorescence decay traces were fit using FluoFit (Picoquant) software. For steady-state and time-resolved fluorescence measurements a quartz cuvette with a 10 mm path length was used and all the solutions were prepared in air equilibrated acetonitrile.
Quantum yields of fluorescence were measured using PM605 in acetonitrile as a reference. Absorption and emission spectra of PM605 and the dye of interest were measured in acetonitrile at five different concentrations. The integrated intensity versus absorbance were then plotted and fitted linearly. Relative quantum yields of fluorescence for the unknown with respect to the standard were obtained from equation 1, where φ, Δ, and n refer, respectively, to the quantum yield, the slope obtained from the above-mentioned plot, and the solvent refractive index for the unknown (x) or standard (st).

[3] = ^1O2 quantum yield and lifetime, ^1O2 phosphorescence at 1270 nm (direct method); assay type: physicochemical
Experimental: The generation of singlet oxygen and its lifetime were determined from ^1O2 phosphorescence decay curves recorded at 1270 nm upon excitation with a 532 nm Nd:YAG laser. A total of 3 laser shots were applied to acquire a trace. […] Quantum yield of ^1O2 production (φΔ^D) were calculated comparing the intensity of ^1O2 phosphorescence at 1270 nm for the corresponding photosensitizer with that recorded for Rose Bengal (φΔ=0.54).^81

[4] = ^1O2 quantum yield, photooxidation of DMA (indirect method); assay type: physicochemical; conditions: consumption of dimethylanthracene, Rose Bengal standard, air equilibrated acetonitrile
Experimental: Solutions of 9,10-dimethylanthracene (DMA, 50 μM) and photosensitizers (compound 3-10) in air equilibrated acetonitrile were irradiated in 10 mm path length quartz cell (3 ml) with a Nd:Yag laser exciting at 532 nm. Laser excitation was performed at 10 Hz, providing one laser output for every discharge of the flashlamp. An irradiation time of 1 s is equivalent to 10 laser pulses. The energy of each pulse was 10 mJ. The kinetics of DMA photooxidation were studied by following the decrease of the absorbance at λ=377 nm. The observed rate constant (kobs) was obtained by a linear least-squares fit of the semilogarithmic plot of ln [DMA]0/[DMA] (see FIG. 14). Quantum yields of ^1O2 production (φΔ^I) were calculated comparing the kobs=kq [^1O2] for the corresponding photosensitizer with that for Rose Bengal, which was used as a reference (φΔ=0.54).^1 Measurements of the sample and the reference under the same conditions afforded φΔ^I for compounds (3-10) by direct comparison of the slope in the linear region of the plots.
For the indirect detection of ^1O2, it is possible to determine the kq value considering that the production of ^1O2 is constant compare with the initial concentration of DMA. According to these, a pseudo first-order kinetic for this reaction is proposed (equations 2 to 5): […]
The conversion of DMA followed pseudo-first order kinetics with the different photosensitizers (see FIG. 14). From equation 5, it was possible to determine kobs and ^1O2.

[5] = Laser flash photolysis: triplet excited state decay and quenching; assay type: physicochemical
Experimental: The 500 mJ/pulse laser output was attenuated yielding 10 mJ laser pulses of 6 ns in duration. Samples were prepared in acetonitrile. The final absorbance of the BODIPY dyes was 0.1. The concentration was kept low to avoid triplet-triplet annihilation. Each sample was de-oxygenated by purging with argon gas for at least 30 min. Quartz cells containing 10×10 mm path length were used. The decay of the BODIPYs was monitored between 420-440 and 520-550 nm (depending the BODIPY) following the laser excitation. Samples were irradiated with a total of 6 laser shots to acquire the temporal evolution of ΔOD.
A second layer of control was subsequently tested via LFP studies, to monitor the extent to which the trap segment deactivates the triplet excited state of the photosensitizes. […] The two quenchers emulate the trap segments utilized in 7 and 8, respectively.

[6] = from reference 54 (1) or 31 (2); cited from earlier work
[7] = acetonitrile, room temperature; from reference 31; cited from earlier work
[8] = cited from earlier work; for abs λmax / em λmax / Φf (fluorescence quantum yield) / ε (extinction coefficient): acetonitrile, room temperature, from reference 31; for E00 (HOMO-LUMO gap): from reference 54 (1) or 31 (2)
[9] = cited from earlier work; for E^oB^+·/B (reversible oxidation potential): from reference 54 (1) or 31 (2)
[10] = from reference 54 (1) or 31 (2); cited from earlier work; remark: listed apart in the source
E. coli ATCC 25922 = assay: Antibacterial photodynamic inactivation, regular vs hydrogen peroxide stressed bacteria (CFU counts); assay type: cell-based; conditions: in the dark; 7 with or without H2O2
Experimental: The microorganism used for this study is E. coli ATCC 25922. Stock cultures were preserved at −70° C. using glycerol 10% (v/v) as the cryoprotectant, and the strain was grown in Luria Bertania broth (LB). Bacterial culture was prepared inoculating a single colony from a pure culture. After overnight incubation at 37° C. for 18 h, the culture reached a density of approximately 1×10^9 CFU/mL and it was diluted to 10^6 CFU/mL.
At the end of the irradiation time, 100 μL aliquots were placed in 96 wells from each tube and serially diluted 10-fold in PBS to obtain dilutions of 10^1 to 10^4 fold, in addition to the original concentration, on agar plates to determine CFU. Viability counts were performed at 0 and 1 hour in either dark or light conditions from each dilution, 10 μL aliquots were plated on LB agar. Plates were streaked in triplicate and incubated for 18 h at 37° C. Each experiment was performed at least three times on different days.
To stress the cells we utilized hydrogen peroxide, known to stimulate ROS production in Gram-negative cells.^79,80 We incubated bacteria from the E. coli strain (10^6 colony forming units (CFU)/mL) with 500 nM hydrogen peroxide for 2 hours at 37° C. Following precipitation and resuspension of this bacteria in media with no H2O2, we added compound 7. In parallel, compound 7 was also added to bacteria that were not exposed to H2O2.

[11] = cited from earlier work; for overall singlet oxygen quenching rate constant kq: kq(physical)+kq(chemical), reference 74; for chemical quenching of ^1O2 / physical quenching of ^1O2: share of total quenching
[12] = Intermolecular quenching of ^1O2 phosphorescence by chromanol rings; assay type: physicochemical; conditions: ^1O2 generated upon irradiation of compound 5, air equilibrated acetonitrile
Excerpt: To test whether 7 is equally efficient at deactivating ^1O2 as α-tocopherol, we generated ^1O2 upon irradiation of compound 5 and monitored the ^1O2 phosphorescence lifetime in the presence of increasing amounts of either 7 or PMHC (an α-tocopherol analogue lacking the phytyl tail).

[13] = reference value; cited from earlier work

SMILES: CC1=C(I)C(C)=[N+]2C1=C(COC(=O)C1(C)CCc3c(C)c(O)c(C)c(C)c3O1)c1c(C)c(I)c(C)n1[B-]2(F)F (racemic) [Compound 8, 8-((±)-6-Hydroxy-2,5,7,8-tetramethylchromane-2-carbonyloxy)-2,6-diiodo-methyl-1,3,5,7-tetramethylpyrromethene Fluoroborate]
kdec (fluorescence decay rate constant) [1]: 555.6 ± 0.6 × 10^7 s^−1 | knr (non-radiative decay rate constant, (1−φf)×kdec) [1]: 551.0 ± 0.5 × 10^7 s^−1 | krad (radiative rate constant, φf×kdec) [1]: 5.0 ± 0.1 × 10^7 s^−1 | drop in φf caused by the trap segment ([2]; 7 compared to reference 4, 8 compared to 5): ca. 2 fold | abs λmax ([2]; acetonitrile, room temperature): 552 nm | em λmax ([2]; acetonitrile, room temperature): 576 nm | Φf (fluorescence quantum yield) ([2]; acetonitrile, room temperature): 0.009 ± 0.002 | ε (extinction coefficient) ([2]; acetonitrile, room temperature): 63000 M⁻¹ cm⁻¹ | φΔ relative to control compound 5 [3]: ca. ½ | ΦΔ^D (singlet oxygen quantum yield, direct) ([3]; ^1O2 phosphorescence at 1270 nm, air equilibrated acetonitrile): 0.57 ± 0.02 | ^1O2 phosphorescence decay lifetime ([3]; upon photosensitization, air equilibrated acetonitrile): 70 μs | ΦΔ^I (singlet oxygen quantum yield, indirect) [4]: 0.46 ± 0.03 | increase in kT upon covalent attachment of the chromanol ([5]; 8 compared to its precursor 5): 6 fold | kq (triplet quenching rate constant) Q = PMHC ([5]; Ar saturated acetonitrile): 5.90 ± 0.09 × 10^8 M^−1s^−1 | kT (triplet decay rate constant) Air equilibrated ([5]; acetonitrile, air equilibrated): 4.55 ± 0.02 × 10^6 s^−1 | kT (triplet decay rate constant) Argon Purged ([5]; acetonitrile, argon purged): 9.16 ± 0.05 × 10^4 s^−1 | kq (triplet quenching rate constant) Q = ^3O2 ([5]; acetonitrile, calculated with oxygen solubility 2.42 mM): 1.88 ± 0.02 × 10^9 M^−1s^−1

SMILES: CC1=CC(C)=[N+]2C1=C(C)c1c(C)cc(C)n1[B-]2(F)F [Compound 1, 1,3,5,7,8-pentamethyl-Pyrromethene Fluoroborate]
εHOMO [6]: −5.36 ± 0.01 eV | εLUMO [6]: −2.31 ± 0.05 eV | kdec (fluorescence decay rate constant) [7]: 17.8 ± 0.1 × 10^7 s^−1 | knr (non-radiative decay rate constant) [7]: 3.3 ± 0.1 × 10^7 s^−1 | krad (radiative rate constant) [7]: 14.4 ± 0.1 × 10^7 s^−1 | abs λmax [8]: 491 nm | em λmax [8]: 498 nm | Φf (fluorescence quantum yield) [8]: 0.81 ± 0.02 | ε (extinction coefficient) [8]: 97000 M⁻¹ cm⁻¹ | E00 (HOMO-LUMO gap) [8]: 2.53 eV | E^oB^+·/B (reversible oxidation potential) [9]: 0.77 | ΔGeT (Singlet), Gibbs free energy for PeT [10]: −0.26 eV

SMILES: CC(=O)OCC1=C2C(C)=CC(C)=[N+]2[B-](F)(F)n2c(C)cc(C)c21 [Compound 2, 8-Acetoxymethyl-1,3,5,7-tetramethyl Pyrromethene Fluoroborate]
εHOMO [6]: −5.49 ± 0.01 eV | εLUMO [6]: −2.61 ± 0.05 eV | kdec (fluorescence decay rate constant) [7]: 15.0 ± 0.2 × 10^7 s^−1 | knr (non-radiative decay rate constant) [7]: 2.0 ± 0.1 × 10^7 s^−1 | krad (radiative rate constant) [7]: 13.1 ± 0.2 × 10^7 s^−1 | abs λmax [8]: 515 nm | em λmax [8]: 530 nm | Φf (fluorescence quantum yield) [8]: 0.87 ± 0.02 | ε (extinction coefficient) [8]: 81000 M⁻¹ cm⁻¹ | E00 (HOMO-LUMO gap) [8]: 2.38 eV | E^opc (cathodic peak potential) ([9]; from reference 31): −1.44 | E^oB^+·/B (reversible oxidation potential) [9]: 0.75 | ΔGeT (Singlet), Gibbs free energy for PeT [10]: −0.24 eV

SMILES: OO [Compound H2O2, hydrogen peroxide, reference compound]
colony forming units, dark controls (E. coli ATCC 25922): no effect in the CFU

singlet oxygen quenching rate constant kq [12]: 4e+08 M⁻¹ s⁻¹
SMILES: Cc1c(C)c2c(c(C)c1O)CCC(C)(C)O2 [PMHC, 2,2,5,7,8-pentamethyl-6-hydroxy-chroman]
overall singlet oxygen quenching rate constant kq [11]: 1.96e+08 M⁻¹ s⁻¹ | chemical quenching of ^1O2 [11]: 5% | physical quenching of ^1O2 [11]: 95%

SMILES: O=C([O-])c1c(Cl)c(Cl)c(Cl)c(Cl)c1-c1c2cc(I)c(=O)c(I)c-2oc2c(I)c([O-])c(I)cc12.[Na+].[Na+] [Rose Bengal]
φΔ of reference standard [13]: 0.54

SMILES: Cc1c(C)c2c(c(C)c1O)CC[C@@](C)(CCC[C@H](C)CCC[C@H](C)CCCC(C)C)O2 [α-tocopherol]
overall singlet oxygen quenching rate constant kq [11]: 2.06e+08 M⁻¹ s⁻¹ | chemical quenching of ^1O2 [11]: 7% | physical quenching of ^1O2 [11]: 93%
